Read-outs that look alike come from different tables or passages of the source.
Legend:
[1] = target: T1, human NPR1 (Homo sapiens, UniProt P16066); assay: Cellular cGMP production assay, human NPR1 expressing CHO-K1 cells (CisBio HTRF); type: cell-based; details: for AC50: cGMP production, 30 min at 37° C., 12-point dose-response from 30 μM; for Human NPR1 Amax (% of ANP): maximum cGMP production as percentage of the maximum cGMP produced with ANP
T1 construct: host or cells: CHO-K1
T1 sequence (P16066 33-1061): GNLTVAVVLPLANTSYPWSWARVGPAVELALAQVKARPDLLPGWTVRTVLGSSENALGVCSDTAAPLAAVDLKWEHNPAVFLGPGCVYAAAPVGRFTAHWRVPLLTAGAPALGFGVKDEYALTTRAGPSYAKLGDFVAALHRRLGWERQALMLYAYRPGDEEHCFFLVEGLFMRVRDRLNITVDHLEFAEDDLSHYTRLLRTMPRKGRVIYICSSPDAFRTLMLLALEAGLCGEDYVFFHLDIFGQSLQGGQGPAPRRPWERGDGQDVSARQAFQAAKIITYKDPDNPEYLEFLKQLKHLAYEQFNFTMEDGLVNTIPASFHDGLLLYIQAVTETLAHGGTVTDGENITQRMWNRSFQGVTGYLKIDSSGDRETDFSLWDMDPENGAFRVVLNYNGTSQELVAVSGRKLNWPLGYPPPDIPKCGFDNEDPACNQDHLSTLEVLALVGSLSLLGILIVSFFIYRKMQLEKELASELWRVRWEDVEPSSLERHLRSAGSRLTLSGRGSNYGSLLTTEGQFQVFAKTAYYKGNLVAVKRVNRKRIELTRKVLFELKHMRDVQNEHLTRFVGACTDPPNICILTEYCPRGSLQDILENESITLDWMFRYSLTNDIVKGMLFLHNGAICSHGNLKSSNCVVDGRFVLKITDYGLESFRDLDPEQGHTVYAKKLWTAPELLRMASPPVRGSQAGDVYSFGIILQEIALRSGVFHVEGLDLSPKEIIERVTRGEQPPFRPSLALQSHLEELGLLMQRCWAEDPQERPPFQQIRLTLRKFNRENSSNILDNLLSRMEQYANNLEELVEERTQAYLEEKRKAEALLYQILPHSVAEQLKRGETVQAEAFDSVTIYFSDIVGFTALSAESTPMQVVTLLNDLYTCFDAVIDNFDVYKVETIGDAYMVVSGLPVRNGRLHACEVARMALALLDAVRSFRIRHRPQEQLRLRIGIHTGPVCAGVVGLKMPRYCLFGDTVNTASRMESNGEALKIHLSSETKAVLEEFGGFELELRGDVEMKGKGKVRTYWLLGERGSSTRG
Procedure, shortened: (§1)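 12-pt 3-fold dose-response, top 30 μM; buffer PBS + 0.1% BSA + 1 mM IBMX (PDE inhibitor); 30 min, 37 °C. Lyse, add cGMP-d2 + anti-cGMP-cryptate, 1 h RT. Ex 317 / em 665 nm; Delta F converted to cGMP via calibrator standard curve.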

[2] = target: monkey NPR1 (Macaca fascicularis, UniProt A0A7N9DBT9); assay: Cellular cGMP production assay, monkey NPR1 expressing CHO-K1 cells (CisBio HTRF); type: cell-based; details: for Monkey NPR1 Amax (% of ANP): maximum cGMP production as percentage of the maximum cGMP produced with ANP
Procedure, shortened: as §1

[3] = cGMP production, monkey NPR1 CHO-K1 cells, 30 min at 37° C., 12-point dose-response from 30 μM, read-out: Monkey NPR1 AC50

monkey NPR1, sequence (A0A7N9DBT9 entry or part of it): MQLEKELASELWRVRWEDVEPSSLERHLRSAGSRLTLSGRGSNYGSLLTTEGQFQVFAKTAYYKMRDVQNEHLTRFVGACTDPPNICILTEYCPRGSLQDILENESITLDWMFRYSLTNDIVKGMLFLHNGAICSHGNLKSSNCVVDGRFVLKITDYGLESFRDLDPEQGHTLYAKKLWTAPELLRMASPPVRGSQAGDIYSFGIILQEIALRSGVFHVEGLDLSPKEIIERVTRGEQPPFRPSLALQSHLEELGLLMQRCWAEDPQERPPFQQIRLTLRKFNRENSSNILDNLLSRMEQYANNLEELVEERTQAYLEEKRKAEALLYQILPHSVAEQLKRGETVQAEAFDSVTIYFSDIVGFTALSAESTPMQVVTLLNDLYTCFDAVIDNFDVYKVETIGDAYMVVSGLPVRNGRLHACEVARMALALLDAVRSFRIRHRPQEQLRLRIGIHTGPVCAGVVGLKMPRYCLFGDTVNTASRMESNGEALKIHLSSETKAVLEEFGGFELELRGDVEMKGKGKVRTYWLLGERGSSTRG

`CC[C@H]([C@H]1CC[C@H](C(=O)O)CC1)N(C)c1nc2c(c(N[C@@H](CN3C4CCCC3CC4)c3cnn(C)c3)n1)C[C@H](c1ccccc1F)CC2` [Compound 62, (1R,4r)-4-((1R)-1-(((6R)-4-(((1R)-2-(8-azabicyclo[3.2.1]octan-8-yl)-1-(1-methyl-1H-pyrazol-4-yl)ethyl)amino)-6-(2-fluorophenyl)-5,6,7,8-tetrahydroquinazolin-2-yl)(methyl)amino)propyl)cyclohexane-1-carboxylic acid] was tested, and the AC50 [1] was 0.207 µM, the “Human NPR1 Amax (% of ANP)” value [1] was 94.244 % of ANP and the AC50 [2] was 0.133 µM. The “Monkey NPR1 Amax (% of ANP)” value ([2]; monkey NPR1 CHO-K1 cells) was 103.497 % of ANP.
With `CC[C@@H](Nc1nc2c(c(N[C@@H](CN3CCC[C@H](C)C3)c3cnn(C)c3)n1)C[C@](C)(c1ccccc1F)CC2)[C@H]1CC[C@H](C(=O)O)CC1` [Compound 20, (1R,4r)-4-((R)-1-(((R)-6-(2-fluorophenyl)-6-methyl-4-(((R)-1-(1-methyl-1H-pyrazol-4-yl)-2-((S)-3-methylpiperidin-1-yl)ethyl)amino)-5,6,7,8-tetrahydroquinazolin-2-yl)amino)propyl)cyclohexane-1-carboxylic acid] the AC50 [1] was 0.109 µM, the “Human NPR1 Amax (% of ANP)” value [1] was 95.253 % of ANP and the AC50 [2, 3] was 0.06 µM. For the same compound, the “Monkey NPR1 Amax (% of ANP)” value ([2]; monkey NPR1 CHO-K1 cells) was 92.710 % of ANP.
With `CC[C@H]([C@H]1CC[C@H](C(=O)O)CC1)N(C)c1nc2c(c(N[C@@H](CN3CCCC[C@@H]3CO)c3cnn(C)c3)n1)C[C@H](c1ccccc1)CC2` [Compound 149, (1R,4r)-4-((R)-1-(((R)-4-(((R)-2-((R)-2-(hydroxymethyl)piperidin-1-yl)-1-(1-methyl-1H-pyrazol-4-yl)ethyl)amino)-6-phenyl-5,6,7,8-tetrahydroquinazolin-2-yl)(methyl)amino)propyl)cyclohexane-1-carboxylic acid] the AC50 [1] was 1.14 µM, the “Human NPR1 Amax (% of ANP)” value [1] was 130.209 % of ANP and the AC50 [2, 3] was 1.02 µM. The “Monkey NPR1 Amax (% of ANP)” value ([2]; monkey NPR1 CHO-K1 cells) was 164.167 % of ANP.
`CC[C@H]([C@H]1CC[C@H](C(=O)O)CC1)N(C)c1nc2c(c(N[C@@H](CN3C4CCCC3CCC4)c3cnn(C)c3)n1)C[C@H](c1ccccc1)CC2` [Compound 143, (1R,4r)-4-((R)-1-(((R)-4-(((R)-2-((1S,5S)-9-azabicyclo[3.3.1]nonan-9-yl)-1-(1-methyl-1H-pyrazol-4-yl)ethyl)amino)-6-phenyl-5,6,7,8-tetrahydroquinazolin-2-yl)(methyl)amino)propyl)cyclohexane-1-carboxylic acid] was tested, and the AC50 [1] was 0.92 µM, the “Human NPR1 Amax (% of ANP)” value [1] was 104.085 % of ANP and the AC50 [2] was 0.694 µM. The “Monkey NPR1 Amax (% of ANP)” value ([2]; monkey NPR1 CHO-K1 cells) was 100.784 % of ANP.
For `CC[C@H]([C@H]1CC[C@H](C(=O)O)CC1)N(C)c1nc2c(c(N[C@@H](CN3CCC[C@H](CO)C3)c3cnn(C)c3)n1)C[C@H](c1ccccc1)CC2` [Compound 93, (1R,4r)-4-((R)-1-(((R)-4-(((R)-2-((S)-3-(hydroxymethyl)piperidin-1-yl)-1-(1-methyl-1H-pyrazol-4-yl)ethyl)amino)-6-phenyl-5,6,7,8-tetrahydroquinazolin-2-yl)(methyl)amino)propyl)cyclohexane-1-carboxylic acid], the AC50 [1] was 0.318 µM, the “Human NPR1 Amax (% of ANP)” value [1] was 92.058 % of ANP and the AC50 [2, 3] was 0.261 µM. For the same compound, the “Monkey NPR1 Amax (% of ANP)” value ([2]; monkey NPR1 CHO-K1 cells) was 91.105 % of ANP.
In the case of `CC[C@H]([C@H]1CC[C@H](C(=O)O)CC1)N(C)c1nc2c(c(N[C@@H](CN3CCC[C@H](C)C3)c3cnn(C)c3)n1)CN(C1CCCCC1)CC2` [Compound 152, (1R,4r)-4-((R)-1-((6-cyclohexyl-4-(((R)-1-(1-methyl-1H-pyrazol-4-yl)-2-((S)-3-methylpiperidin-1-yl)ethyl)amino)-5,6,7,8-tetrahydropyrido[4,3-d]pyrimidin-2-yl)(methyl)amino)propyl)cyclohexane-1-carboxylic acid], the AC50 [1] is reported as 1.19 µM, the “Human NPR1 Amax (% of ANP)” value [1] is reported as 104.537 % of ANP and the AC50 [2] is reported as 0.6 µM. For the same compound, the “Monkey NPR1 Amax (% of ANP)” value ([2]; monkey NPR1 CHO-K1 cells) was 106.260 % of ANP.
For `CC[C@H]([C@H]1CC[C@H](C(=O)O)CC1)N(C)c1nc2c(c(N[C@@H](CN3CCC(O)CC3)c3cnn(CC)c3)n1)C[C@H](c1ccccc1)CC2` [Compound 154, (1R,4r)-4-((R)-1-(((R)-4-(((R)-1-(1-ethyl-1H-pyrazol-4-yl)-2-(4-hydroxypiperidin-1-yl)ethyl)amino)-6-phenyl-5,6,7,8-tetrahydroquinazolin-2-yl)(methyl)amino)propyl)cyclohexane-1-carboxylic acid], the AC50 [1] was 1.24 µM, the “Human NPR1 Amax (% of ANP)” value [1] was 105.125 % of ANP and the AC50 [2, 3] was 0.802 µM. For the same compound, the “Monkey NPR1 Amax (% of ANP)” value ([2]; monkey NPR1 CHO-K1 cells) was 97.456 % of ANP.
`CC[C@@H](Nc1nc2c(c(N[C@@H](CN3CCCCC3)c3cnn(C(C)C)c3)n1)C[C@H](c1ccccc1)CC2)[C@H]1CC[C@H](C(=O)O)CC1` [Compound 100, (1R,4r)-4-((R)-1-(((R)-4-(((R)-1-(1-isopropyl-1H-pyrazol-4-yl)-2-(piperidin-1-yl)ethyl)amino)-6-phenyl-5,6,7,8-tetrahydroquinazolin-2-yl)amino)propyl)cyclohexane-1-carboxylic acid] was tested, and the AC50 [1] was 0.354 µM, the “Human NPR1 Amax (% of ANP)” value [1] was 92.848 % of ANP and the AC50 [2, 3] was 0.161 µM. For the same compound, the “Monkey NPR1 Amax (% of ANP)” value ([2]; monkey NPR1 CHO-K1 cells) was 105.588 % of ANP.
With `O=C(O)[C@H]1CC[C@H](C(CC2CC2)Nc2nc3c(c(N[C@@H](CN4CCCC4)c4ccccc4)n2)CC(c2ccccc2)CC3)CC1` (stereo partly drawn) [Compound 139, (1R,4r)-4-((1R)-2-cyclopropyl-1-((6-phenyl-4-(((R)-1-phenyl-2-(pyrrolidin-1-yl)ethyl)amino)-5,6,7,8-tetrahydroquinazolin-2-yl)amino)ethyl)cyclohexane-1-carboxylic acid] the AC50 [1] was 0.876 µM, the “Human NPR1 Amax (% of ANP)” value [1] was 105.089 % of ANP and the AC50 [2, 3] was 0.696 µM. For the same compound, the “Monkey NPR1 Amax (% of ANP)” value ([2]; monkey NPR1 CHO-K1 cells) was 111.911 % of ANP.
With `CC[C@@H](Nc1nc2c(c(N[C@@H](CN3CCCC3)c3ccccc3)n1)C[C@@H](c1ccccc1)CC2)[C@H]1CC[C@H](C(=O)O)CC1` [Compound 115, (1R,4r)-4-((R)-1-(((S)-6-phenyl-4-(((R)-1-phenyl-2-(pyrrolidin-1-yl)ethyl)amino)-5,6,7,8-tetrahydroquinazolin-2-yl)amino)propyl)cyclohexane-1-carboxylic acid] the AC50 [1] was 0.474 µM, the “Human NPR1 Amax (% of ANP)” value [1] was 111.049 % of ANP and the AC50 [2, 3] was 0.387 µM. The “Monkey NPR1 Amax (% of ANP)” value ([2]; monkey NPR1 CHO-K1 cells) was 106.285 % of ANP.
In the case of `CC[C@@H](Nc1nc2c(c(N[C@@H](CN3CCCCC3)c3cnn(CC)c3)n1)C[C@H](c1ccccc1)CC2)[C@H]1CC[C@H](C(=O)O)CC1` [Compound 45, (1R,4r)-4-((R)-1-(((R)-4-(((R)-1-(1-ethyl-1H-pyrazol-4-yl)-2-(piperidin-1-yl)ethyl)amino)-6-phenyl-5,6,7,8-tetrahydroquinazolin-2-yl)amino)propyl)cyclohexane-1-carboxylic acid], the AC50 [1] is reported as 0.175 µM, the “Human NPR1 Amax (% of ANP)” value [1] is reported as 98.472 % of ANP and the AC50 [2, 3] is reported as 0.125 µM. For the same compound, the “Monkey NPR1 Amax (% of ANP)” value ([2]; monkey NPR1 CHO-K1 cells) was 99.911 % of ANP.
For `CC[C@H]([C@H]1CC[C@H](C(=O)O)CC1)N(C)c1nc2c(c(N[C@@H](CN3CCC[C@H](C(F)F)C3)c3cnn(C)c3)n1)C[C@H](c1cccc(F)c1)CC2` [Compound 54, (1R,4r)-4-((R)-1-(((R)-4-(((R)-2-((S)-3-(difluoromethyl)piperidin-1-yl)-1-(1-methyl-1H-pyrazol-4-yl)ethyl)amino)-6-(3-fluorophenyl)-5,6,7,8-tetrahydroquinazolin-2-yl)(methyl)amino)propyl)cyclohexane-1-carboxylic acid], the AC50 [1] was 0.194 µM, the “Human NPR1 Amax (% of ANP)” value [1] was 95.979 % of ANP and the AC50 [2, 3] was 0.174 µM. The “Monkey NPR1 Amax (% of ANP)” value ([2]; monkey NPR1 CHO-K1 cells) was 103.704 % of ANP.
`CC[C@H]([C@H]1CC[C@H](C(=O)O)CC1)N(C)c1nc2c(c(N[C@@H](CN3CCC[C@H](CO)C3)c3cnn(C)c3)n1)C[C@H](c1cccc(F)c1)CC2` [Compound 72, (1R,4r)-4-((R)-1-(((R)-6-(3-fluorophenyl)-4-(((R)-2-((S)-3-(hydroxymethyl)piperidin-1-yl)-1-(1-methyl-1H-pyrazol-4-yl)ethyl)amino)-5,6,7,8-tetrahydroquinazolin-2-yl)(methyl)amino)propyl)cyclohexane-1-carboxylic acid] was tested, and the AC50 [1] was 0.242 µM, the “Human NPR1 Amax (% of ANP)” value [1] was 99.718 % of ANP and the AC50 [2, 3] was 0.137 µM. For the same compound, the “Monkey NPR1 Amax (% of ANP)” value ([2]; monkey NPR1 CHO-K1 cells) was 104.824 % of ANP.

Reference: US12129246B1, “Hydroquinazoline derivatives for the treatment of a disease or disorder” (Novartis AG, priority 2023, dated 2024)
